# Marks after values point to notes of the source that are not given here.
# Molecular target: T1, Dopamine beta hydroxylase (Homo sapiens, UniProt P09172)
# T1 construct: 125 μl of plasma; tissue Instituto Português do Sangue Transplantação; host or cells: human plasma from healthy donors
# T1 sequence (P09172 40-617 limits assumed): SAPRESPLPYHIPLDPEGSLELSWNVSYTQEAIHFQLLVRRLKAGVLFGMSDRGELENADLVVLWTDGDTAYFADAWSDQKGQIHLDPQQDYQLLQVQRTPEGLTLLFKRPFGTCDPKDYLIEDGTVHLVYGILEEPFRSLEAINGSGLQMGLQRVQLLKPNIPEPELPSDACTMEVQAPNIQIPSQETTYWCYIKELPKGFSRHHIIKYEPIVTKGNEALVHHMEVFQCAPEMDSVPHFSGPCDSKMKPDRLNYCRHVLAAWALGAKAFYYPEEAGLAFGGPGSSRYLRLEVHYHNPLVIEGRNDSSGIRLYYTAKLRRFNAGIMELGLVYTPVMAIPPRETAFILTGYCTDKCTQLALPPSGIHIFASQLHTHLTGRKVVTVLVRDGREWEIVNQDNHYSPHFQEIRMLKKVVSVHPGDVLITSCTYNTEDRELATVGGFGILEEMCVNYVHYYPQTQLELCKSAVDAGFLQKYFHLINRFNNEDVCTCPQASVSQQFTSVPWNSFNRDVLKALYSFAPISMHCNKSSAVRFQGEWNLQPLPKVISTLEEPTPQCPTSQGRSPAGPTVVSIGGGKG
# Experiment: Dopamine beta hydroxylase activity in human plasma
# Assay type: biochemical
# Settings: for Plasma (1 μM), activity in % of control: inhibitor 1 μM
# In short: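 Healthy-donor human plasma pre-incubated 10 min at 37° C with compound at final 10, 100 or 1000 nM in pH 5.0 acetate buffer with ascorbate, fumarate, pargyline, N-ethylmaleimide, catalase and copper sulfate. Tyramine substrate then added for 45 min; octopamine formed was isolated by SCX cartridge, periodate-converted and read at 330 nm; activity given as % control.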
"Plasma (0.01 μM), activity in % of control (inhibitor 0.01 μM)","Plasma (0.1 μM), activity in % of control (inhibitor 0.1 μM)","Plasma (1 μM), activity in % of control","Plasma (0.01 μM), activity in % of control, re-test (asterisked) (inhibitor 0.01 μM, re-tested under the same experimental conditions, asterisked data believed to be correct)","Plasma (0.1 μM), activity in % of control, re-test (asterisked) (inhibitor 0.1 μM, re-tested under the same experimental conditions, asterisked data believed to be correct)",Compound
42.3 % of control,4.3 % of control,,,,"Cn1cc(CNC(=O)Cc2c3n(c(=S)n2C)C[C@@]2(c4cc(Cl)ccc4F)C[C@@H]32)cn1 [Example 339, 2-((5aS,6aR)-5a-(5-chloro-2-fluorophenyl)-2-methyl-3-thioxo-2,3,5,5a,6,6a-hexahydrocyclopropa[3,4]pyrrolo[1,2-c]imidazol-1-yl)-N-((1-methyl-1H-pyrazol-4-yl)methyl)acetamide]"
81.7 % of control,35.9 % of control,,,,"COC[C@@H]1CCCN1C(=O)Cc1c2n(c(=S)n1C)C[C@@H](c1c(F)ccc(F)c1F)C2 [Example 247, 1-((S)-2-(methoxymethyl)pyrrolidin-1-yl)-2-((R)-2-methyl-3-thioxo-6-(2,3,6-trifluorophenyl)-2,5,6,7-tetrahydro-3H-pyrrolo[1,2-c]imidazol-1-yl)ethan-1-one]"
66.5 % of control,35.2 % of control,,,,"O=C(Cc1[nH]c(=S)n2c1C[C@@H](c1c(F)ccc(Cl)c1F)C2)N[C@@H]1CCCOC1 [Example 401, 2-((S)-6-(3-chloro-2,6-difluorophenyl)-3-thioxo-2,5,6,7-tetrahydro-3H-pyrrolo[1,2-c]imidazol-1-yl)-N—((R)-tetrahydro-2H-pyran-3-yl)acetamide]"
71.7 % of control,32.5 % of control,,,,"Cl.Cn1c(CCNC2CCCC2)c2n(c1=S)C[C@@]1(c3cc(Br)ccc3F)C[C@@H]21 [Example 330, (5aS,6aR)-5a-(5-bromo-2-fluorophenyl)-1-(2-(cyclopentylamino)ethyl)-2-methyl-5,5a,6,6a-tetrahydrocyclopropa[3,4]pyrrolo[1,2-c]imidazole-3(2H)-thione Hydrochloride]"
41.7 % of control,16.1 % of control,,,,"Cn1c(CC(=O)N2CCOCC2)c2n(c1=S)C[C@H](c1c(F)ccc(Cl)c1F)C2 [Example 329, (S)-2-(6-(3-chloro-2,6-difluorophenyl)-2-methyl-3-thioxo-2,5,6,7-tetrahydro-3H-pyrrolo[1,2-c]imidazol-1-yl)-1-morpholinoethan-1-one]"
81.4 % of control,62.2 % of control,,,,"Cn1c(CC(=O)NC2(C#N)CC2)c2n(c1=S)C[C@@H](c1c(F)ccc(F)c1F)C2 [Example 254, (R)—N-(1-cyanocyclopropyl)-2-(2-methyl-3-thioxo-6-(2,3,6-trifluorophenyl)-2,5,6,7-tetrahydro-3H-pyrrolo[1,2-c]imidazol-1-yl)acetamide]"
43.2 % of control,11.8 % of control,,,,"O=C(Cc1[nH]c(=S)n2c1C[C@@H](c1c(F)ccc(Cl)c1F)C2)N[C@@H]1CCOC1 [Example 362, 2-((S)-6-(3-chloro-2,6-difluorophenyl)-3-thioxo-2,5,6,7-tetrahydro-3H-pyrrolo[1,2-c]imidazol-1-yl)-N—((R)-tetrahydrofuran-3-yl)acetamide]"
72.6 % of control,21.6 % of control,,,,"F.Fc1ccc(Br)cc1[C@]12C[C@H]1c1c(CCNC3CC3)[nH]c(=S)n1C2 [Example 187, (5aS,6aR)-5a-(5-bromo-2-fluorophenyl)-1-(2-(cyclopropylamino)ethyl)-5,5a,6,6a-tetrahydrocyclopropa[3,4]pyrrolo[1,2-c]imidazole-3(2H)-thione hydrofluoride]"
45.6 % of control,6.9 % of control,,,,"[2H]C([2H])([2H])n1c(CC(=O)N[C@H]2CCOC2)c2n(c1=S)C[C@@]1(c3cc(Br)ccc3F)C[C@@H]21 [Example 461, 2-((5aS,6aR)-5a-(5-bromo-2-fluorophenyl)-2-(methyl-d)-3-thioxo-2,3,5,5a,6,6a-hexahydrocyclopropa[3,4]pyrrolo[1,2-c]imidazol-1-yl)-N—((S)-tetrahydrofuran-3-yl)acetamide]"
,65.8 % of control,13.1 % of control,,,"O=C(Cc1[nH]c(=S)n2c1C[C@H](c1c(F)cccc1F)C2)NC1CCCC1 [Example 76, (R)—N-cyclopentyl-2-(6-(2,6-difluorophenyl)-3-thioxo-2,5,6,7-tetrahydro-3H-pyrrolo[1,2-c]imidazol-1-yl)acetamide]"
91.5 % of control,19.7 % of control,,,,"CN(C(=O)Cc1[nH]c(=S)n2c1[C@@H]1C[C@]1(c1cc(Br)ccc1F)C2)C1CCCC1 [Example 155, 2-((5aS,6aR)-5a-(5-bromo-2-fluorophenyl)-3-thioxo-2,3,5,5a,6,6a-hexahydrocyclopropa[3,4]pyrrolo[1,2-c]imidazol-1-yl)-N-cyclopentyl-N-methylacetamide]"
72.3 % of control,12.5 % of control,,,,"Cc1nnc(NC(=O)Cc2c3n(c(=S)n2C)C[C@H](c2c(F)ccc(Cl)c2F)C3)o1 [Example 349, (S)-2-(6-(3-chloro-2,6-difluorophenyl)-2-methyl-3-thioxo-2,5,6,7-tetrahydro-3H-pyrrolo[1,2-c]imidazol-1-yl)-N-(5-methyl-1,3,4-oxadiazol-2-yl)acetamide]"
31.8 % of control,1.4 % of control,,90.1* % of control,22.5* % of control,"O=C(Cc1[nH]c(=S)n2c1C[C@H](c1c(F)c(F)cc(F)c1F)C2)N[C@@H]1CCOC1 [Example 360, 2-((R)-6-(2,3,5,6-tetrafluorophenyl)-3-thioxo-2,5,6,7-tetrahydro-3H-pyrrolo[1,2-c]imidazol-1-yl)-N—((R)-tetrahydrofuran-3-yl)acetamide]"
,37.5 % of control,0.1 % of control,,,"CCCCN(C)C(=O)Cc1[nH]c(=S)n2c1C[C@@H](c1c(F)ccc(Br)c1F)C2 [Example 92, (S)-2-(6-(3-bromo-2,6-difluorophenyl)-3-thioxo-2,5,6,7-tetrahydro-3H-pyrrolo[1,2-c]imidazol-1-yl)-N-butyl-N-methylacetamide]"
63.4 % of control,24.5 % of control,,,,"Cn1c(CC(=O)NCC#N)c2n(c1=S)C[C@H](c1c(F)ccc(Br)c1F)C2 [Example 253, (S)-2-(6-(3-bromo-2,6-difluorophenyl)-2-methyl-3-thioxo-2,5,6,7-tetrahydro-3H-pyrrolo[1,2-c]imidazol-1-yl)-N-(cyanomethyl)acetamide]"

Compound,"Plasma (0.01 μM), activity in % of control (inhibitor 0.01 μM)","Plasma (0.1 μM), activity in % of control (inhibitor 0.1 μM)","Plasma (1 μM), activity in % of control","Plasma (0.01 μM), activity in % of control, re-test (asterisked) (inhibitor 0.01 μM, re-tested under the same experimental conditions, asterisked data believed to be correct)","Plasma (0.1 μM), activity in % of control, re-test (asterisked) (inhibitor 0.1 μM, re-tested under the same experimental conditions, asterisked data believed to be correct)"
"O=C(NCc1[nH]c(=S)n2c1C[C@@H](c1c(F)ccc(Cl)c1F)C2)C1CCCC1 [Example 221, (S)—N-((6-(3-chloro-2,6-difluorophenyl)-3-thioxo-2,5,6,7-tetrahydro-3H-pyrrolo[1,2-c]imidazol-1-yl)methyl)cyclopentanecarboxamide]",79.3 % of control,30.0 % of control,,,

# Source: patent US11434242B2, “Dopamine-b-hydroxylase inhibitors” (BIAL-PORTELA & Cª, S.A., priority 2017, dated 2022)
